{"source": "ChEMBL document CHEMBL5465560", "about": "“Selectivity Literature for EUbOPEN Chemogenomic Library” (2024)", "key": {"[1]": {"target": "Histone-lysine N-methyltransferase KMT5C (Homo sapiens) (UniProt Q86Y97)", "sequence (Q86Y97 whole entry, looked up)": "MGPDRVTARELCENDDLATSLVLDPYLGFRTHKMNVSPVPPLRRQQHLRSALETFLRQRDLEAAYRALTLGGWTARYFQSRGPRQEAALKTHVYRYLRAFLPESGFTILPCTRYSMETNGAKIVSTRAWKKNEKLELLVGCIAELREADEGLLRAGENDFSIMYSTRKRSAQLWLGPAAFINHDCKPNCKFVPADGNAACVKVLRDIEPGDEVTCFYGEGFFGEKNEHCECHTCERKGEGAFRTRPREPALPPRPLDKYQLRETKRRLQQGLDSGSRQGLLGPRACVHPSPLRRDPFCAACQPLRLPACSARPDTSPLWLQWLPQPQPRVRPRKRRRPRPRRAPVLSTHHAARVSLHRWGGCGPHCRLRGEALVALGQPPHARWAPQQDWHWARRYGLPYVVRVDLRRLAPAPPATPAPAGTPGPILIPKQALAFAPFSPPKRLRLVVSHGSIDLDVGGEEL", "assay": "Selectivity interaction (Methyltransferase screen (radiometric assays, panel of 8 PRMTs, 21 protein lysine methyltransferases, 3 DNA methyltransferases, and one RNA methyltransferase)) EUB0000272b SUV420H2"}, "[2]": {"target": "T1, 3-phosphoinositide-dependent protein kinase 1 (Homo sapiens) (UniProt O15530)", "T1 sequence (whole entry)": "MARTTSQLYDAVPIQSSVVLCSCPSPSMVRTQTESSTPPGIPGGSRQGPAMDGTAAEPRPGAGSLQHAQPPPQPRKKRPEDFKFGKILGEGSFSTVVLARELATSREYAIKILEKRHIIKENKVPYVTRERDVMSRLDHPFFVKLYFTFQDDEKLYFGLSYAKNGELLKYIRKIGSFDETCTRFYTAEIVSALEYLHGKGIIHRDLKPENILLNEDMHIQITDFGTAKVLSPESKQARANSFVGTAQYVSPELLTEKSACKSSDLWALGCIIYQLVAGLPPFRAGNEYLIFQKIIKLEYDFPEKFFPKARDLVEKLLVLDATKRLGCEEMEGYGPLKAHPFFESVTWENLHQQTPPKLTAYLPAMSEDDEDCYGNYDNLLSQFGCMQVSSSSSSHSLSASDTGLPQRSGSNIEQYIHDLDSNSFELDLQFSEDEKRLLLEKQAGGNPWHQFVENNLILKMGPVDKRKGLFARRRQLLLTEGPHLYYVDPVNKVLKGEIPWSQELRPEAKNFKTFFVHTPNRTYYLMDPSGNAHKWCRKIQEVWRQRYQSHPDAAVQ", "assay": "Selectivity interaction (Ambit KINOMEscan and KiNATiv profiling in Jurkat cells) EUB0000090b PDPK1", "type": "cell-based", "settings": "at 1 µM"}, "[3]": {"target": "Serine/threonine-protein kinase WNK1 (Homo sapiens) (UniProt Q9H4A3)", "sequence (Q9H4A3 whole entry, looked up)": "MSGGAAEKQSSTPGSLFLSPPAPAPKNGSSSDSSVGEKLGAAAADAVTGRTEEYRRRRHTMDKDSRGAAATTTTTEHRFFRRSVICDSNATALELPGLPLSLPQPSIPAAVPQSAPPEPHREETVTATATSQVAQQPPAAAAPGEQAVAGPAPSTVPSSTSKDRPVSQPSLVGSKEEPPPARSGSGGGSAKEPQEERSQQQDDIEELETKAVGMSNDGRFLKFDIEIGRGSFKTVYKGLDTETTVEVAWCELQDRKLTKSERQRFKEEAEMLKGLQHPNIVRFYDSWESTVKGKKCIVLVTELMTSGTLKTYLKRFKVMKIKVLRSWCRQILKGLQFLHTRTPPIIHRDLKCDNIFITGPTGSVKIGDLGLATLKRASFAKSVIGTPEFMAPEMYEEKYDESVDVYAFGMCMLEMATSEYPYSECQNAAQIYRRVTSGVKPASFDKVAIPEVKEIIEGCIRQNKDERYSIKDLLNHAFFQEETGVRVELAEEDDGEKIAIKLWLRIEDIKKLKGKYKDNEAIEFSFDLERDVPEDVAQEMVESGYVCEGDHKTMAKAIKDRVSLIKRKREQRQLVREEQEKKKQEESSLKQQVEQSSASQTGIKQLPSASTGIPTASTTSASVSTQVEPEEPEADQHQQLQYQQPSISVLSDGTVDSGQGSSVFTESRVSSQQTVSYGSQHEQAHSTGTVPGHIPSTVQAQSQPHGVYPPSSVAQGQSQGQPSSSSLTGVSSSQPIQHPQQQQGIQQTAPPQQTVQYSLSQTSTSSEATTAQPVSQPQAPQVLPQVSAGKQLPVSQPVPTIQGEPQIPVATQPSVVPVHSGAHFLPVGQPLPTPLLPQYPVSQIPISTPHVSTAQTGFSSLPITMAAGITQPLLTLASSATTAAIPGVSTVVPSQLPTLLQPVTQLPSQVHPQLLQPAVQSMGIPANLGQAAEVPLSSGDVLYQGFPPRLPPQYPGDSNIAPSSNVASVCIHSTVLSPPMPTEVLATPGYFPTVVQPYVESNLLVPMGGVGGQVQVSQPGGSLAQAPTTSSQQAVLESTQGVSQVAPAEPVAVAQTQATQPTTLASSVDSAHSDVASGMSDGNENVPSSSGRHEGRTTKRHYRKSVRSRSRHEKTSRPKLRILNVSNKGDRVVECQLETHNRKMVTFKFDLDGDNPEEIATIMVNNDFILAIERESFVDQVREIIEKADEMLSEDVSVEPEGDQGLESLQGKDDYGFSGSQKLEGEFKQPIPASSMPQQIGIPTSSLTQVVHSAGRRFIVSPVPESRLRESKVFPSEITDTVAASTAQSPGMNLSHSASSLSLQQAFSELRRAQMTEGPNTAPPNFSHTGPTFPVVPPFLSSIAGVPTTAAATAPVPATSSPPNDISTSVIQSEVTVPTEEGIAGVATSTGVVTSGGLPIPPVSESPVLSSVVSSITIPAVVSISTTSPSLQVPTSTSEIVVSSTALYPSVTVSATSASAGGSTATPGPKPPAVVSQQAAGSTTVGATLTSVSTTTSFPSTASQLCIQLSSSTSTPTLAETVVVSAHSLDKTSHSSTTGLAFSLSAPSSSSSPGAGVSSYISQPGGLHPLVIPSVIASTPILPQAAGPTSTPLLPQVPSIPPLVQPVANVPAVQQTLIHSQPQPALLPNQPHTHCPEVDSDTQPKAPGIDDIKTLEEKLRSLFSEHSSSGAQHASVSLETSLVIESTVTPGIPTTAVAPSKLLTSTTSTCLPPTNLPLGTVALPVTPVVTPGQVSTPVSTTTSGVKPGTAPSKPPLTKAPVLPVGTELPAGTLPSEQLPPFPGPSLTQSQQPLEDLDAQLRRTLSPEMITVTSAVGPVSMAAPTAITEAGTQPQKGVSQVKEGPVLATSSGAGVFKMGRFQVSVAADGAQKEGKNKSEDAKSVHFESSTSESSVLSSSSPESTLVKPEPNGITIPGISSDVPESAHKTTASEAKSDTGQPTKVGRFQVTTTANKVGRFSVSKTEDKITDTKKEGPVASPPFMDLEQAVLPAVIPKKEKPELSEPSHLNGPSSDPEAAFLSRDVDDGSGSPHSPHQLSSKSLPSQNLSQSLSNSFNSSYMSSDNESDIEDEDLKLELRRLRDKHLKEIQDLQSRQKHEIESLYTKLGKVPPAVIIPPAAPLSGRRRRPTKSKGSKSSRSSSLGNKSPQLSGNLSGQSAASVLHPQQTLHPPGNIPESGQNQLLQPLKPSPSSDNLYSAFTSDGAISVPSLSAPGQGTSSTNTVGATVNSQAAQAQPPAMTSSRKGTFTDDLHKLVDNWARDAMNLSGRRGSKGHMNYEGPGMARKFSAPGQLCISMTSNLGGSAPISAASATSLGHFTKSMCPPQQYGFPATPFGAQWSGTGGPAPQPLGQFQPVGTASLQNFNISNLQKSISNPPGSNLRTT", "assay": "Selectivity interaction (Ambit KINOMEscan and KiNATiv profiling in Jurkat cells) EUB0000090b WNK1", "type": "cell-based", "settings": "at 1 µM"}, "[4]": {"target": "Serine/threonine-protein kinase/endoribonuclease IRE1 (Homo sapiens) (UniProt O75460)", "assay": "Selectivity interaction (KinomeScan (DiscoverX)) EUB0001079a ERN1", "settings": "at 1 µM"}, "[5]": {"target": "Serine/threonine-protein kinase 35 (Homo sapiens) (UniProt Q8TDR2)", "sequence (Q8TDR2 whole entry)": "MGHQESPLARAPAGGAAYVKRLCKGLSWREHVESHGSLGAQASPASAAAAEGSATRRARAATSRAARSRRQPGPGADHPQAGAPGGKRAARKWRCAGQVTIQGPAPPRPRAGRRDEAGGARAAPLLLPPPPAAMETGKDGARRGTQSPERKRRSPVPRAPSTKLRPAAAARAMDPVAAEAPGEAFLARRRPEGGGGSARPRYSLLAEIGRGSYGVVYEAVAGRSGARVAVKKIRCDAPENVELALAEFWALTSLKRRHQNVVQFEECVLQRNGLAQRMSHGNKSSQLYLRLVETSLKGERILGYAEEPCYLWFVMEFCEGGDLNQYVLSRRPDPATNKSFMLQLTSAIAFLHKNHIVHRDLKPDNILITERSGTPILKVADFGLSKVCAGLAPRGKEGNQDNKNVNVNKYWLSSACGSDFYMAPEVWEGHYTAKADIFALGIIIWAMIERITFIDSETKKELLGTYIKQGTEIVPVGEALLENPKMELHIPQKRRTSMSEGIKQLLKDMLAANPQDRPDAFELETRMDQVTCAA", "assay": "Selectivity interaction (KinomeScan (DiscoverX)) EUB0000607a STK35", "settings": "at 10 µM"}, "[6]": {"target": "SRSF protein kinase 2 (Homo sapiens) (UniProt P78362)", "sequence (P78362 whole entry, looked up)": "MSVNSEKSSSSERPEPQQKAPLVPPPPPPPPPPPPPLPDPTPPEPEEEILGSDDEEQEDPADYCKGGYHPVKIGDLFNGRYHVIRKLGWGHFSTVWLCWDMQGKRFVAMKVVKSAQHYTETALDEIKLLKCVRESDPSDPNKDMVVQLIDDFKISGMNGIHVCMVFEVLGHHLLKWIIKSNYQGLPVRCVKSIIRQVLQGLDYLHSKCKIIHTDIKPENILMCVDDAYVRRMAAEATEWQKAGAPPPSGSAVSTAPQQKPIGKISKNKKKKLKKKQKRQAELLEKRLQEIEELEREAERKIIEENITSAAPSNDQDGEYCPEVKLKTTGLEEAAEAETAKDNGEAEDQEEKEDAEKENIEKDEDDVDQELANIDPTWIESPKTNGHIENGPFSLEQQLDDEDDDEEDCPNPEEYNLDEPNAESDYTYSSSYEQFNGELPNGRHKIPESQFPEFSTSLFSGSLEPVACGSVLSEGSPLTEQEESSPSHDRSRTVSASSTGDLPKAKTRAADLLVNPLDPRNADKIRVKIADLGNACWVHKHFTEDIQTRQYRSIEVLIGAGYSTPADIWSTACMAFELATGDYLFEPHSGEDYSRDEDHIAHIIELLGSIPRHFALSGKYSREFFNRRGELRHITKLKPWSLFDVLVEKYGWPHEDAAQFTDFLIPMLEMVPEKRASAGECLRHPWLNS", "assay": "Selectivity interaction (KinomeScan (DiscoverX)) EUB0000045b SRPK2"}, "[7]": {"target": "Serine/threonine-protein kinase 24 (Homo sapiens) (UniProt Q9Y6E0)", "sequence (Q9Y6E0 whole entry, looked up)": "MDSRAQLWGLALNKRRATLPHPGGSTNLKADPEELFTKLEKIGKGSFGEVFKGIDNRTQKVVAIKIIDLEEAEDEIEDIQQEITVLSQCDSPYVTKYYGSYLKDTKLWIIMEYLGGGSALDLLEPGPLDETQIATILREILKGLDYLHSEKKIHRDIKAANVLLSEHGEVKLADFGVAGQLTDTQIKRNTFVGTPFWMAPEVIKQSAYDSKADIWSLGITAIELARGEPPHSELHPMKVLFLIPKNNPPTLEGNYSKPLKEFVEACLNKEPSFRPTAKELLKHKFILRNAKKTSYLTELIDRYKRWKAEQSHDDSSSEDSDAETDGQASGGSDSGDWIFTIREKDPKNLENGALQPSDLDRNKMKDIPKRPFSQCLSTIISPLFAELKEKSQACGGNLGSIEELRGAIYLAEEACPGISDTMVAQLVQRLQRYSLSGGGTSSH", "assay": "Selectivity interaction (Kinase panel (KiNativ target engagement assay in Jurkat cells)) EUB0001635a STK24", "type": "cell-based", "settings": "Selectivity number of off-targets 0.0, Selectivity number of targets 233.0, Source Knowledge https://www.sciencedirect.com/science/article/pii/S2451945619300674?via%3Dihub, at 1 µM"}, "[8]": {"target": "Cyclin-dependent kinase 16 (Homo sapiens) (UniProt Q00536)", "settings": "at 10 µM"}, "[9]": {"target": "T2, Dual specificity tyrosine-phosphorylation-regulated kinase 2 (Homo sapiens) (UniProt Q92630)", "T2 sequence (whole entry)": "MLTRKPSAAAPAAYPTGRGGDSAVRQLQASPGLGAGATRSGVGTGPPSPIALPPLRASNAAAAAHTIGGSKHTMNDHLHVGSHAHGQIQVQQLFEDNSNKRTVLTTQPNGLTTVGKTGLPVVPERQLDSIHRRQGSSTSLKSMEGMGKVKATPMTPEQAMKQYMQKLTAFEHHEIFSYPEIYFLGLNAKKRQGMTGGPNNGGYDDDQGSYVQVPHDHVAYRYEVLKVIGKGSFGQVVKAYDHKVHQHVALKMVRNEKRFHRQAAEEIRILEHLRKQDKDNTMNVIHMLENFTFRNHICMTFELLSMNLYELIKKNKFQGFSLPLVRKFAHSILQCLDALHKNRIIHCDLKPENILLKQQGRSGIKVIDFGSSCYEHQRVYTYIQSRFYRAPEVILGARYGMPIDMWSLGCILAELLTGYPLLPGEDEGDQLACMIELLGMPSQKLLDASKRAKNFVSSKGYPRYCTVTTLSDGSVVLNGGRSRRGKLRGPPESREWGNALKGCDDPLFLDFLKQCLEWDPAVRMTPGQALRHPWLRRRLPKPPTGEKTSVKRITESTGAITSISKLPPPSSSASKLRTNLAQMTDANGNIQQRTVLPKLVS", "settings": "at 10 µM"}, "[10]": {"target": "Serine/threonine-protein kinase 24 (Homo sapiens) (UniProt Q9Y6E0)", "assay": "Selectivity interaction (ActivX KiNativ screen (kinase selectivity in THP-1 cell lysates)) EUB0000639a STK24", "type": "subcellular", "settings": "lysate, at 0.04 µM"}, "[11]": {"target": "Tyrosine-protein kinase Lck (Homo sapiens, UniProt P06239)"}, "[12]": {"target": "Mast/stem cell growth factor receptor Kit (Homo sapiens, UniProt P10721)", "assay": "Selectivity interaction (KinomeScan (DiscoverX)) EUB0001049a KIT", "settings": "at 1 µM"}, "[13]": {"target": "Acetylcholine receptor subunit alpha (Homo sapiens, UniProt P02708)", "sequence (P02708 whole entry)": "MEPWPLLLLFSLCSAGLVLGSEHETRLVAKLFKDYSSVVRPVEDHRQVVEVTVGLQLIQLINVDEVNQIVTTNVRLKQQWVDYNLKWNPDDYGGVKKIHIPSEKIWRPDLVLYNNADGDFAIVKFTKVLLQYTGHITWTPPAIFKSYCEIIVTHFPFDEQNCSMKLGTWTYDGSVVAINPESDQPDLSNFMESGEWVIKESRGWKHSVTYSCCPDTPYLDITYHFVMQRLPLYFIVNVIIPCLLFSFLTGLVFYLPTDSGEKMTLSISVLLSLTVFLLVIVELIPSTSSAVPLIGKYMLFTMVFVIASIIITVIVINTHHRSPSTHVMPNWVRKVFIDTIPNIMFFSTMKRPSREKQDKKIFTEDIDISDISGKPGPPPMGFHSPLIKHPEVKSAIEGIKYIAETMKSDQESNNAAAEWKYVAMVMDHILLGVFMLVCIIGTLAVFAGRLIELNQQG", "assay": "Selectivity interaction (Nicotinic (CNS) Receptor binding in human IMR32 cells ) EUB0000877a CHRNA1", "type": "cell-based, IMR-32"}, "[14]": {"target": "Cyclin-dependent kinase 2 (Homo sapiens, UniProt P24941)", "assay": "Selectivity interaction (KinomeScan (DiscoverX)) EUB0000666a CDK2", "settings": "at 10 µM"}, "[15]": {"target": "T3, Testis-specific serine/threonine-protein kinase 2 (Homo sapiens) (UniProt Q96PF2)", "T3 sequence (whole entry)": "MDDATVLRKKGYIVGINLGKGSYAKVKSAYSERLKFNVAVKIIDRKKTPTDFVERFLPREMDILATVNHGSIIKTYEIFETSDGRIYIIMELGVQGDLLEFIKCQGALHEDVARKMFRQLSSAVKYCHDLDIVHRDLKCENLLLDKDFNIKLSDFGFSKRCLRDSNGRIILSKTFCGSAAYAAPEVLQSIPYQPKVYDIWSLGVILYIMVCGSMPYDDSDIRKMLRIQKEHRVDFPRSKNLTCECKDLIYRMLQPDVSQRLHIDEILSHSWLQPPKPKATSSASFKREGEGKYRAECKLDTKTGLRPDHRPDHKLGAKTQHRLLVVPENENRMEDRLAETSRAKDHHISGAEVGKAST", "assay": "Selectivity interaction (Kinase panel (Z-LYTE Assay)) EUB0001632a TSSK2", "settings": "at 10 µM"}}, "data": [{"smiles": "Cc1cc(C)cc([C@H]2c3cc(C)ccc3NC(=O)CN2C(=O)c2ccc(Br)s2)c1", "values": [{"measurement": "% of activity", "setting": "[1]; at 1 µM", "result": 101, "unit": "%"}, {"measurement": "% of activity", "setting": "[1]; at 10 µM", "result": 102, "unit": "%"}]}, {"smiles": "CN(C)C/C=C/C(=O)Nc1ccc(C(=O)N2CCCC(Nc3ncc(Cl)c(-c4c[nH]c5ccccc45)n3)C2)cc1", "note": "(configuration not stated)", "values": [{"measurement": "% of control", "setting": "[2]", "result": 99, "unit": "%"}, {"measurement": "% of control", "setting": "[3]", "result": 80, "unit": "%"}]}, {"smiles": "Nc1cnc(N2CCc3cc(S(=O)(=O)Nc4c(F)cc(Cl)cc4F)cc(N4CCCC4=O)c32)nc1", "note": "[TP-020n]", "values": [{"measurement": "% of control", "setting": "[4]", "result": 100, "unit": "%"}]}, {"smiles": "CNC(=O)Nc1ccc(-c2nc(N3CC4CCC(C3)O4)c3cnn(C4CCC5(CC4)OCCO5)c3n2)cc1", "values": [{"measurement": "% of control", "setting": "[5]", "result": 95, "unit": "%"}]}, {"smiles": "C=CC(=O)Nc1cc(-n2c(=O)ccc3cnc4ccc(-c5ccc(NS(C)(=O)=O)cc5)cc4c32)ccc1C", "values": [{"measurement": "% of control", "setting": "[6]; at 1 µM", "result": 100, "unit": "%"}, {"measurement": "% of control", "setting": "[6]; at 10 µM", "result": 81, "unit": "%"}]}, {"smiles": "C=CC(=O)Nc1ccc(C(=O)Nc2[nH]nc3c2CN(C(=O)N[C@H](CN(C)C)c2ccccc2)C3(C)C)cc1", "values": [{"measurement": "% of engagement", "setting": "[7]", "result": 24, "unit": "%"}]}, {"smiles": "Cc1cc([C@@H](C)Nc2ccccc2C(=O)O)c2nc(N3CCOCC3)cc(=O)n2c1", "note": "[AZD-6482]", "values": [{"measurement": "% of control", "setting": "[8]", "result": 100, "unit": "%"}, {"measurement": "% of control", "setting": "[9]", "result": 89, "unit": "%"}]}, {"smiles": "CC[C@@H]1[C@H](F)C(=O)N[C@@H]1COc1nccc2cc(C(N)=O)c(OC)cc12", "note": "[ZIMLOVISERTIB]", "values": [{"measurement": "% of inhibition", "setting": "[10]", "result": 13.3, "unit": "%"}]}, {"smiles": "CCc1cccc(CC)c1NC(=O)c1nn(C)c2c1CCc1cnc(Nc3ccc(C(=O)NC4CCN(C)CC4)cc3OC(F)(F)F)nc1-2", "values": [{"measurement": "IC50", "setting": "[11]", "result": "> 10", "unit": "µM"}]}, {"smiles": "COc1cc(Nc2nc(C)cc(-c3cnn4nc(OC)ccc34)n2)cc(C(F)(F)F)c1", "values": [{"measurement": "% of control", "setting": "[12]", "result": 75, "unit": "%"}]}, {"smiles": "CCC(=O)N1CC[C@H](Nc2ncnc3c2CN(c2cnc(OC)c(C(F)(F)F)c2)CC3)C1", "note": "[LENIOLISIB]", "values": [{"measurement": "IC50", "setting": "[13]", "result": "> 30", "unit": "µM"}]}, {"smiles": "O=C(NOC[C@H](O)CO)c1ccc(F)c(F)c1Nc1ccc(I)cc1F", "values": [{"measurement": "% of control", "setting": "[14]", "result": 91, "unit": "%"}]}, {"smiles": "Cn1cc(-n2cnc3c(NCc4nc5cc(Cl)c(Cl)cc5[nH]4)nc(N4CCOCC4)nc32)cn1", "values": [{"measurement": "% of control", "setting": "[15]", "result": -16.5, "unit": "%"}]}]}
